Reference: the NIST ThermoML archive (doi:10.1021/acs.jced.7b00335)
± gives the expanded uncertainty stated by the source.

Assay: xn = mol fraction of the nth substance listed
Conditions: 100 kPa, Liquid; for mass density: Vibrating tube method; for viscosity: Concentric cylinders viscometry

Structure (SMILES): O=Cc1ccccc1 [benzaldehyde] + CCCC(C)O
- mass density (308.15 K, x1 = 0.0809): 812.9 ± 1 kg/m3
- mass density (308.15 K, x1 = 0.1662): 828.8 ± 1 kg/m3
- mass density (308.15 K, x1 = 0.2441): 845.5 ± 1 kg/m3
- mass density (308.15 K, x1 = 0.3552): 869.6 ± 1 kg/m3
- mass density (308.15 K, x1 = 0.4418): 890.3 ± 1 kg/m3
- mass density (308.15 K, x1 = 0.5664): 919.3 ± 1 kg/m3
- mass density (308.15 K, x1 = 0.6565): 942.3 ± 1 kg/m3
- mass density (308.15 K, x1 = 0.7447): 966.5 ± 1 kg/m3
- mass density (308.15 K, x1 = 0.8528): 995.5 ± 1 kg/m3
- mass density (308.15 K, x1 = 0.9419): 1018 ± 1 kg/m3
- mass density (308.15 K, x1 = 1): 1032.4 ± 1 kg/m3
- viscosity (313.15 K, x1 = 0.0809): 1.746 ± 0.071 mPa·s
- viscosity (313.15 K, x1 = 0.1662): 1.537 ± 0.062 mPa·s
- viscosity (313.15 K, x1 = 0.2441): 1.37 ± 0.06 mPa·s
- viscosity (313.15 K, x1 = 0.3552): 1.185 ± 0.048 mPa·s
- viscosity (313.15 K, x1 = 0.4418): 1.088 ± 0.044 mPa·s
- viscosity (313.15 K, x1 = 0.5664): 1.021 ± 0.042 mPa·s
- viscosity (313.15 K, x1 = 0.6565): 0.999 ± 0.041 mPa·s
- viscosity (313.15 K, x1 = 0.7447): 0.999 ± 0.041 mPa·s
- viscosity (313.15 K, x1 = 0.8528): 1.035 ± 0.042 mPa·s
- viscosity (313.15 K, x1 = 0.9419): 1.088 ± 0.044 mPa·s
- viscosity (313.15 K, x1 = 1): 1.15 ± 0.05 mPa·s
- mass density (313.15 K, x1 = 0.0809): 808.6 ± 1 kg/m3
- mass density (313.15 K, x1 = 0.1662): 824.4 ± 1 kg/m3
- mass density (313.15 K, x1 = 0.2441): 841.1 ± 1 kg/m3
- mass density (313.15 K, x1 = 0.3552): 865.2 ± 1 kg/m3
- mass density (313.15 K, x1 = 0.4418): 885.2 ± 1 kg/m3
- mass density (313.15 K, x1 = 0.5664): 914.8 ± 1 kg/m3
- mass density (313.15 K, x1 = 0.6565): 937.8 ± 1 kg/m3
- mass density (313.15 K, x1 = 0.7447): 962 ± 1 kg/m3
- mass density (313.15 K, x1 = 0.8528): 991.1 ± 1 kg/m3
- mass density (313.15 K, x1 = 0.9419): 1013.9 ± 1 kg/m3
- mass density (313.15 K, x1 = 1): 1027.9 ± 1 kg/m3
- viscosity (318.15 K, x1 = 0.0809): 1.46 ± 0.06 mPa·s
- viscosity (318.15 K, x1 = 0.1662): 1.291 ± 0.053 mPa·s
- viscosity (318.15 K, x1 = 0.2441): 1.167 ± 0.048 mPa·s
- viscosity (318.15 K, x1 = 0.3552): 1.032 ± 0.042 mPa·s
- viscosity (318.15 K, x1 = 0.4418): 0.963 ± 0.039 mPa·s
- viscosity (318.15 K, x1 = 0.5664): 0.9 ± 0.04 mPa·s
- viscosity (318.15 K, x1 = 0.6565): 0.881 ± 0.036 mPa·s
- viscosity (318.15 K, x1 = 0.7447): 0.884 ± 0.036 mPa·s
- viscosity (318.15 K, x1 = 0.8528): 0.932 ± 0.038 mPa·s
- viscosity (318.15 K, x1 = 0.9419): 1.011 ± 0.041 mPa·s
- viscosity (318.15 K, x1 = 1): 1.09 ± 0.04 mPa·s
- mass density (318.15 K, x1 = 0.0809): 804.2 ± 1 kg/m3
- mass density (318.15 K, x1 = 0.1662): 820 ± 1 kg/m3
- mass density (318.15 K, x1 = 0.2441): 836.7 ± 1 kg/m3
- mass density (318.15 K, x1 = 0.3552): 860.8 ± 1 kg/m3
- mass density (318.15 K, x1 = 0.4418): 881.4 ± 1 kg/m3
- mass density (318.15 K, x1 = 0.5664): 910.4 ± 1 kg/m3
- mass density (318.15 K, x1 = 0.6565): 933.4 ± 1 kg/m3
- mass density (318.15 K, x1 = 0.7447): 957.4 ± 1 kg/m3
- mass density (318.15 K, x1 = 0.8528): 986.6 ± 1 kg/m3
- mass density (318.15 K, x1 = 0.9419): 1009.1 ± 1 kg/m3
- mass density (318.15 K, x1 = 1): 1023.4 ± 1 kg/m3
- viscosity (323.15 K, x1 = 0.0809): 1.206 ± 0.049 mPa·s
- viscosity (323.15 K, x1 = 0.1662): 1.068 ± 0.044 mPa·s
- viscosity (323.15 K, x1 = 0.2441): 0.984 ± 0.04 mPa·s
- viscosity (323.15 K, x1 = 0.3552): 0.887 ± 0.036 mPa·s
- viscosity (323.15 K, x1 = 0.4418): 0.831 ± 0.034 mPa·s
- viscosity (323.15 K, x1 = 0.5664): 0.789 ± 0.032 mPa·s
- viscosity (323.15 K, x1 = 0.6565): 0.782 ± 0.032 mPa·s
- viscosity (323.15 K, x1 = 0.7447): 0.799 ± 0.033 mPa·s
- viscosity (323.15 K, x1 = 0.8528): 0.85 ± 0.04 mPa·s
- viscosity (323.15 K, x1 = 0.9419): 0.941 ± 0.038 mPa·s
- viscosity (323.15 K, x1 = 1): 1.03 ± 0.04 mPa·s
- mass density (323.15 K, x1 = 0.0809): 799.7 ± 1 kg/m3
- mass density (323.15 K, x1 = 0.1662): 815.6 ± 1 kg/m3
- mass density (323.15 K, x1 = 0.2441): 832.2 ± 1 kg/m3
- mass density (323.15 K, x1 = 0.3552): 856.3 ± 1 kg/m3
- mass density (323.15 K, x1 = 0.4418): 876.9 ± 1 kg/m3
- mass density (323.15 K, x1 = 0.5664): 906.7 ± 1 kg/m3
- mass density (323.15 K, x1 = 0.6565): 928.9 ± 1 kg/m3
- mass density (323.15 K, x1 = 0.7447): 952.9 ± 1 kg/m3
- mass density (323.15 K, x1 = 0.8528): 981.6 ± 1 kg/m3
- mass density (323.15 K, x1 = 0.9419): 1004.5 ± 1 kg/m3
- mass density (323.15 K, x1 = 1): 1019.1 ± 1 kg/m3
